From paper PMC11384084 (Journal of Traditional and Complementary Medicine, 2024) come the findings set out here.

“Also recorded” adds a separate entry of the source. Read-outs that look alike come from different tables or passages of the source.

Data set [1] in a line: Peak plasma levels (Cmax) of compounds and metabolites on day 14 by UHPLC-MS/MS. Format: in vivo, human. The settings on record: for Cmax: male, human, plasma, 2 weeks, read-out: UA plasma level, median (Cmax day 14). On the procedure: The compounds and their metabolites were measured using a UHPLC-MS/MS system on a Hybrid quadrupole-Orbitrap mass spectrometer (Q Exactive, Thermo Scientific, Waltham, MA, USA) hyphenated with a Thermo Scientific Vanquish Flex ultrahigh-pressure liquid chromatography (UHPLC) system via an electrospray ionization source. For the parallel reaction monitoring (PRM) scan, the resolution, automatic gain control (AGC) target, and maximum injection time (IT) were set at 17500, 2e5, and 100 ms, respectively. The NCE values for each metabolite were individually set, and the details are provided in Supplemental Table 1. The All-Ion Fragmentation (AIF) scan consisted of a scan range of m/z 100–750 with an NCE of 10. The resolution, AGC target, and maximum IT for the AIF scan were set at […], and 200 ms, respectively. More details regarding the preparation and calibration are provided in the Supplementary Methods section.

The test system of data set [2] is healthy men. The data set is described as follows: Safety laboratory values, baseline vs end of two-week study. The data set is classed as in vivo, human. From the text:
Safety was compared to evaluate the number, frequency, duration, and relationship of toxicity events to CURC and UA, as defined by the Common Terminology Criteria for Adverse Events (CTCAE) v. […] The secondary outcomes included the measured plasma levels of UA, CURC, and selected metabolites. We also investigated the impact on the microbiome in a paired analysis for changes and the overall theme of imputed bacterial function.
Demographics between groups were compared using Fisher's exact test for categorical variables and Student's t-test for continuous variables. Laboratory safety values were analyzed using a paired t-test for differences, with significance set at p < 0.05. ANOVA was used to compare the plasma levels of UA, CURC, and CURC metabolites. Least significant difference (LSD) was used as the post-hoc analysis test to compare values between groups.
Laboratory analysis was performed at baseline and at the end of the two-week study. We then subtracted the values (week 2: baseline) to obtain the differences for each participant. […] Chronic kidney disease (CKD) is based on glomerulary filtration rate (GFR), and CKD stage 3 starts at a value below 60. […] Bicarbonate can be harmful if large changes occur in either direction, but clinicians are usually concerned about metabolic acidosis.

For data set [3], the system named is healthy men. Kind of data set: Phase 1 clinical trial safety evaluation, adverse events by CTCAE v4.03. The data set is classed as in vivo, human. The settings on record: for Toxicity Grade (CTCAE v4.0) / Relationship To Study Treatment: per event; for Toxicity Grade (CTCAE v4.0) / Relationship To Study Treatment / Event (adverse event term): 2 weeks oral; for Toxicity Grade (CTCAE v4.0) / Adverse Event (Yes/No) / Event (adverse event term): UA 300 mg/day, CURC 1200 mg/day; for Adverse Event (Yes/No) / Event (adverse event term): per subject; for Adverse Event (Yes/No): 2 weeks oral lipid capsules. From the text:
We performed a standard 3 × 3 phase 1 design based on the safety evaluation of UA and CURC tested individually and then in combination (Study Schema in Supplemental Fig. 1). We modified the 3 × 3 design to include any toxicities because we selected the maximum dose due to the reported safety of large doses of these compounds. We enrolled subjects for a 2-week study period and used paired samples for individualized comparisons and pooled results for group comparisons.
We recruited healthy men enrolled in the San Antonio Biomarkers of Risk (SABOR) study, a community-based prostate cancer screening cohort. The San Antonio Biomarkers of Risk (SABOR) study cohort was funded by the 10.13039/100000054National Cancer Institute Early Detection Research Network-sponsored Clinical and Epidemiologic Validation Center since its nascent enrollment in 2000 (IRB# HSC20000030H). A separate IRB was approved for the Phase 1 trial (IRB# HSC20190940H). The participants had no prior diagnosis of prostate cancer at the time of enrollment and had varied prostate cancer risk profiles. We used data from the local UT Health San Antonio Data Safety and Monitoring Board (DSMB).
Safety was compared to evaluate the number, frequency, duration, and relationship of toxicity events to CURC and UA, as defined by the Common Terminology Criteria for Adverse Events (CTCAE) v. 4.03. The secondary outcomes included the measured plasma levels of UA, CURC, and selected metabolites. We also investigated the impact on the microbiome in a paired analysis for changes and the overall theme of imputed bacterial function.

Data set [4] can be described thus: Human microsomal metabolism of UA alone or with CURC. The data set is classed as in vitro ADME. The settings on record: UA 4 μM, HLM, NADPH, 37 °C. On the procedure: The respective stock solutions were further diluted using MeOH to prepare calibration curve standards and working solutions. The diluent was prepared by spiking the IS (C-d6 and BA) in 100% MeOH to obtain a concentration of 100 ng/mL. The solutions were stored at −20 °C before use. […] Aliquots of 30 μL were collected at different time points, and the reaction was terminated by adding 120 μL of the diluent. Finally, the collected samples were vigorously vortexed, centrifuged for 10 min at 4 °C and 50 μL of the clear supernatant was transferred to LC-MS vials for analysis. UHPLC–MS analysis was performed using a Thermo Scientific Vanquish UHPLC system coupled with an Orbitrap IQ-X Tribrid mass spectrometer with an electrospray ionization (ESI) interface. […] The H-ESI interface was operated in negative ion mode with interface ion transfer tube temperature 320 °C, vaporizing temperature 250 °C, sheath gas 45 Arb, auxiliary gas 10 Arb, sweep gas 2 Arb, and detector voltage 3.5 kV. […] Data processing was performed using the Thermo Scientific Freestyle software (1.8. SP2 version).

The mark [5] stands for this setting: CURC alone group, 1200 mg/day oral, day 14.
Setting [6] is: combination group (CurcUA), day 14.
Setting [7] is: week 2 minus baseline, n = 6 per group.
Where [8] appears, read: adverse event Creatinine increased.
Setting [9] is: Musculoskeletal domain adverse event.
[10] abbreviates: Nervous system domain adverse event.

On to `COc1cc(/C=C/C(=O)CC(=O)/C=C/c2ccc(O[C@@H]3O[C@H](C(=O)O)[C@@H](O)[C@H](O)[C@H]3O)c(OC)c2)ccc1O` [CURC glucuronide, curcumin glucuronide], for which the entries for the “CURC glucuronide plasma level, median” value in data set [1] (setting [5]) and in data set [1] (setting [6]) were 24.0 ng/mL and 25 ng/mL, respectively.
For the compound `COc1cc(/C=C/C(=O)CC(=O)/C=C/c2ccc(O)c(OC)c2)ccc1O` [Curcumin, curcumin], the “GFR after 2 weeks, individual participant” value in data set [2] (baseline GFR 45 (CURC arm participant), 76 (CurcUA participant)) is 46. Further, in data set [2] (individual subjects, baselines 1.10, 1.0, 1.13), the “Creatinine after treatment in subject with event 'Creatinine increased' (Comments)” value is given as “Creatine increased from 1.10 to 1.24; also recorded: Creatine increased from 1.0 to 1.21”. Besides, in data set [2] (setting [7]), the “Difference in ALT, median (IQR)” value is listed as −1.0 (−3.25 to 0.0); the “Difference in AST, median (IQR)” value is recorded as 2.0 (−2.0 to 3.3); the “Difference in Albumin, median (IQR)” value is reported as 0.05 (−0.05 to 0.2); the “Difference in Alkaline Phosphatase, median (IQR)” value is listed as −2.0 (−5.5 to 9.3). In data set [2] (setting [7]), the “Difference in Bicarbonate, median (IQR)” value is given as −1.5 (−4.3 to 0.0); the “Difference in Bilirubin, median (IQR)” value is −0.1 (−0.3 to 0.0); the “Difference in Calcium, median (IQR)” value is 0.2 (−0.15 to 0.32); the “Difference in Chloride, median (IQR)” value is recorded as −0.5 (−1.3 to 0.8). Also, in data set [2] (setting [7]), the “Difference in Creatinine, median (IQR)” value is recorded as 0.07 (−0.07 to 0.16); the “Difference in Glomerular Filtration Rate (GFR), median (IQR)” value was −5.5 (−12.0 to 4.5); the “Difference in Hematocrit, median (IQR)” value is on record as 0.25 (−1.45 to 2.35); the “Difference in Hemoglobin, median (IQR)” value was 0.20 (−0.30 to 0.55). Moreover, in data set [2] (setting [7]), the “Difference in Platelets, median (IQR)” value was 7.0 (−5 to 31.5); the “Difference in Sodium, median (IQR)” value was 0.0 (−1.5 to 1.0); the “Difference in White blood cell (WBC), median (IQR)” value is 0.15 (−0.43 to 0.68). Moreover, in data set [1] (setting [5]), the “CURC parent compound plasma level, median” value is reported as 0.42 ng/mL and the “Highest plasma level of CURC” value is given as 0.52 ng/mL. The “CURC plasma level, median” value in data set [1] (setting [6]) is given as 0.0 ng/mL. For the same compound, in data set [3] (adverse event Bloating), the “Toxicity Grade (CTCAE v4.0)” value stood at 2 and the “Event (adverse event term)” value was “Bloating”. In data set [3] (setting [8]), the “Toxicity Grade (CTCAE v4.0)” value came to 1, the “Relationship To Study Treatment” value is “Unlikely” and the “Event (adverse event term)” value is recorded as “Creatinine increased”. Also, in data set [3] (adverse event Diarrhea), the “Relationship To Study Treatment” value was “Possible” and the “Event (adverse event term)” value was “Diarrhea”. Moreover, in data set [3], the “Adverse Event (Yes/No)” value is “No and Yes”. In addition, the “Event (adverse event term)” value in data set [3] (adverse event Flatulence) is “Flatulence”.
Consider `C[C@H]1[C@H](C)CC[C@]2(C(=O)O)CC[C@]3(C)C(=CC[C@@H]4[C@@]5(C)CC[C@H](O)C(C)(C)[C@@H]5CC[C@]43C)[C@H]12` [Ursolic Acid, ursolic acid], for which, in data set [2] (setting [7]), the “Difference in ALT, median (IQR)” value is recorded as 1.5 (1.0–12.8); the “Difference in AST, median (IQR)” value was 2.0 (−1.3 to 3.3); the “Difference in Albumin, median (IQR)” value is on record as 0.0 (−0.1 to 0.2); the “Difference in Alkaline Phosphatase, median (IQR)” value is 2.5 (−2.5 to 5.0). Further, in data set [2] (setting [7]), the “Difference in Bicarbonate, median (IQR)” value is listed as 1.0 (−1.5 to 3.0); the “Difference in Bilirubin, median (IQR)” value was 0.0 (−0.08 to 0.15); the “Difference in Calcium, median (IQR)” value was 0.03 (−0.05 to 0.48); the “Difference in Chloride, median (IQR)” value is reported as −1.0 (−2.75 to 1.75). Moreover, in data set [2] (setting [7]), the “Difference in Creatinine, median (IQR)” value is reported as −0.08 (−0.33 to 0.12); the “Difference in Hematocrit, median (IQR)” value was 1.55 (−0.85 to 2.85); the “Difference in Hemoglobin, median (IQR)” value is listed as 0.20 (−0.33 to 0.58); the “Difference in Platelets, median (IQR)” value is on record as 9.5 (2.5–27). For the same compound, in data set [2] (setting [7]), the “Difference in Sodium, median (IQR)” value is 0.5 (−1.5 to 2.25) and the “Difference in White blood cell (WBC), median (IQR)” value is reported as 0.20 (−0.23 to 0.85). For the same compound, in data set [4] (UA-only incubations), the “UA remaining at 40 min” value is reported as 47%. Moreover, the “UA remaining at 40 min” value in data set [4] (ratio 1:4 (UA: CURC)) amounted to 73%. In data set [1] (UA alone group, UA 300 mg/day oral), the Cmax turned out to be 2.7 ng/mL. In data set [1] (combination group (CurcUA), UA 300 mg/day + CURC 1200 mg/day oral), the peak concentration (Cmax) stood at 43.8 ng/mL. Also, the “Increase of UA plasma levels, combination vs UA alone” value in data set [1] (median 2.7 to 43.8 ng/mL) is listed as 16 fold. In addition, in data set [3] (CTCAE v4.03, n), the “Number of low-grade gastrointestinal (GI)-related complaints attributed” value is given as 3. Moreover, in data set [3], the “Relationship To Study Treatment” value is recorded as “Unlikely”; the “Adverse Event (Yes/No)” value was “No and Yes”. In data set [3] (setting [9]), the “Toxicity Grade (CTCAE v4.0)” value worked out at 1 and the “Event (adverse event term)” value is recorded as “Joint pain”. Further, in data set [3] (setting [10]), the “Toxicity Grade (CTCAE v4.0)” value amounted to 2 and the “Event (adverse event term)” value is “Vasovagal Reaction; also recorded: Pre-syncope”.

Usually Cmax stands for the peak of the concentration-time curve.
